From patent publication US20230085307A1, “PYRIDAZINONE COMPOUND AND HERBICIDE” (NISSAN CHEMICAL CORPORATION, priority 2019, published 2023)

Experiments:
persian speedwell [1] = assay: Test Example 4: herbicidal effect by soil treatment (Table 19, symbol R); type: in vivo, Persian speedwell (Veronica persica); details: amount of applied herbicide 320 g/ha
Outline: (§1)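 Applied as a water-diluted emulsion, the compound was sprayed onto soil covering newly sown seeds. Evaluation came three weeks after application, in a greenhouse held at 25° C. to 30° C.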

chickweed [2] = assay: Test Example 5: herbicidal effect by foliage application, plastic box (Table 20, symbol P); type: in vivo, common chickweed (Stellaria media); details: foliage application, AAH 320 g/ha, evaluated three weeks after application
Outline: (§2)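 Sow seeds spot-wise in sterilized diluvial soil; cover with ~1.5 cm soil. Grow 14 days in greenhouse, 25° C. to 30° C. Spray foliage with emulsion diluted to predetermined amount. Rate effect after 3 weeks.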

redroot pigweed [3] = assay: Test Example 5: herbicidal effect by foliage application, plastic box (Table 20, symbol N); type: in vivo, redroot pigweed (Amaranthus retroflexus); details: foliage application, AAH 320 g/ha, evaluated three weeks after application
Outline: as §2

barnyard grass [4] = assay: Test Example 3: herbicidal effect by foliage application, Wagner pot (Table 18, symbol H); type: in vivo, barnyard grass (Echinochloa crus-galli); details: amount of applied herbicide 320 g/ha
Outline: (§3)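 Plants were sown in alluvial soil held under 0.1–0.5 cm standing water and grown 14 days in a greenhouse at 25–30 °C. An emulsifiable formulation, water-diluted to the set dose, was then sprayed onto the foliage, and effects were scored three weeks later using previously defined criteria.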

velvetleaf [5] = assay: Test Example 5: herbicidal effect by foliage application, plastic box (Table 20, symbol M); type: in vivo, velvetleaf (Abutilon theophrasti); details: foliage application, AAH 320 g/ha, evaluated three weeks after application
Outline: as §2

wild oat [6] = assay: Test Example 4: herbicidal effect by soil treatment (Table 19, symbol I); type: in vivo, wild oat (Avena fatua); details: amount of applied herbicide 320 g/ha
Outline: as §1

redroot pigweed [7] = assay: Test Example 4: herbicidal effect by soil treatment (Table 19, symbol N); type: in vivo, redroot pigweed (Amaranthus retroflexus); details: amount of applied herbicide 320 g/ha
Outline: as §1

lambsquarters [8] = assay: Test Example 4: herbicidal effect by soil treatment (Table 19, symbol O); type: in vivo, lambsquarters (Chenopodium album); details: amount of applied herbicide 320 g/ha
Outline: as §1

windgrass [9] = assay: Test Example 5: herbicidal effect by foliage application, plastic box (Table 20, symbol L); type: in vivo, windgrass (Apera spica-venti); details: foliage application, AAH 320 g/ha, evaluated three weeks after application
Outline: as §2

blackgrass [10] = assay: Test Example 4: herbicidal effect by soil treatment (Table 19, symbol J); type: in vivo, blackgrass (Alopecurus myosuroides); details: amount of applied herbicide 320 g/ha
Outline: as §1

southern crabgrass [11] = assay: Test Example 4: herbicidal effect by soil treatment (Table 19, symbol F); type: in vivo, southern crabgrass (Digitaria ciliaris); details: amount of applied herbicide 320 g/ha
Outline: as §1

persian speedwell [12] = assay: Test Example 5: herbicidal effect by foliage application, plastic box (Table 20, symbol R); type: in vivo, Persian speedwell (Veronica persica); details: foliage application, AAH 320 g/ha, evaluated three weeks after application
Outline: as §2

Italian ryegrass [13] = assay: Test Example 4: herbicidal effect by soil treatment (Table 19, symbol K); type: in vivo, Italian ryegrass (Lolium multiflorum); details: amount of applied herbicide 320 g/ha
Outline: as §1

wild oat [14] = assay: Test Example 5: herbicidal effect by foliage application, plastic box (Table 20, symbol I); type: in vivo, wild oat (Avena fatua); details: foliage application, AAH 320 g/ha, evaluated three weeks after application
Outline: as §2

Chinese sprangletop = assay: Test Example 3: herbicidal effect by foliage application, Wagner pot (Table 18, symbol D); type: in vivo, chinese sprangletop (Leptochloa chinensis); details: amount of applied herbicide 320 g/ha
Outline: as §3

green foxtail [15] = assay: Test Example 4: herbicidal effect by soil treatment (Table 19, symbol G); type: in vivo, green foxtail (Setaria viridis); details: amount of applied herbicide 320 g/ha
Outline: as §1

Italian ryegrass [16] = assay: Test Example 5: herbicidal effect by foliage application, plastic box (Table 20, symbol K); type: in vivo, Italian ryegrass (Lolium multiflorum); details: foliage application, AAH 320 g/ha, evaluated three weeks after application
Outline: as §2

barnyard grass [17] = assay: Test Example 5: herbicidal effect by foliage application, plastic box (Table 20, symbol H); type: in vivo, barnyard grass (Echinochloa crus-galli); details: foliage application, AAH 320 g/ha, evaluated three weeks after application
Outline: as §2

windgrass [18] = assay: Test Example 4: herbicidal effect by soil treatment (Table 19, symbol L); type: in vivo, windgrass (Apera spica-venti); details: amount of applied herbicide 320 g/ha
Outline: as §1

false cleavers = assay: Test Example 5: herbicidal effect by foliage application, plastic box (Table 20, symbol Q); type: in vivo, false cleavers (Galium spurium); details: foliage application, AAH 320 g/ha, evaluated three weeks after application
Outline: as §2

chickweed [19] = assay: Test Example 4: herbicidal effect by soil treatment (Table 19, symbol P); type: in vivo, common chickweed (Stellaria media); details: amount of applied herbicide 320 g/ha
Outline: as §1

rice flat sedge = assay: Test Example 3: herbicidal effect by foliage application, Wagner pot (Table 18, symbol E); type: in vivo, rice flat sedge (Cyperus iria); details: amount of applied herbicide 320 g/ha
Outline: as §3

southern crabgrass [20] = assay: Test Example 5: herbicidal effect by foliage application, plastic box (Table 20, symbol F); type: in vivo, southern crabgrass (Digitaria ciliaris); details: foliage application, AAH 320 g/ha, evaluated three weeks after application
Outline: as §2

barnyard grass [21] = assay: Test Example 4: herbicidal effect by soil treatment (Table 19, symbol H); type: in vivo, barnyard grass (Echinochloa crus-galli); details: amount of applied herbicide 320 g/ha
Outline: as §1

velvetleaf [22] = assay: Test Example 4: herbicidal effect by soil treatment (Table 19, symbol M); type: in vivo, velvetleaf (Abutilon theophrasti); details: amount of applied herbicide 320 g/ha
Outline: as §1

blackgrass [23] = assay: Test Example 5: herbicidal effect by foliage application, plastic box (Table 20, symbol J); type: in vivo, blackgrass (Alopecurus myosuroides); details: foliage application, AAH 320 g/ha, evaluated three weeks after application
Outline: as §2

lambsquarters [24] = assay: Test Example 5: herbicidal effect by foliage application, plastic box (Table 20, symbol O); type: in vivo, lambsquarters (Chenopodium album); details: foliage application, AAH 320 g/ha, evaluated three weeks after application
Outline: as §2

green foxtail [25] = assay: Test Example 5: herbicidal effect by foliage application, plastic box (Table 20, symbol G); type: in vivo, green foxtail (Setaria viridis); details: foliage application, AAH 320 g/ha, evaluated three weeks after application
Outline: as §2

SMILES: Cc1nn(C)c(=O)c(-c2c(-c3ccc(OC(F)F)cc3)sc3ccc(F)cc23)c1OS(=O)(=O)C(C)C [2-309]
- herbicidal effect on R: persian speedwell (persian speedwell [1]): 5 (Herbicidal rate of 90% or more (almost completely withered))
- P: chickweed, herbicidal effect (criteria 0-5) (chickweed [2]): 5 (Herbicidal rate of 90% or more (almost completely withered))
- N: redroot pigweed, herbicidal effect (criteria 0-5) (redroot pigweed [3]): 5 (Herbicidal rate of 90% or more (almost completely withered))
- herbicidal effect on H: barnyard grass (barnyard grass [4]): 5 (Herbicidal rate of 90% or more (almost completely withered))
- M: velvetleaf, herbicidal effect (criteria 0-5) (velvetleaf [5]): 5 (Herbicidal rate of 90% or more (almost completely withered))
- herbicidal effect on I: wild oat (wild oat [6]): 0 (Herbicidal rate of 5% or less (almost no effect))
- herbicidal effect on N: redroot pigweed (redroot pigweed [7]): 5 (Herbicidal rate of 90% or more (almost completely withered))
- herbicidal effect on O: lambsquarters (lambsquarters [8]): 4 (Herbicidal rate of 70% or more and less than 90%)
- L: windgrass, herbicidal effect (criteria 0-5) (windgrass [9]): 1 (Herbicidal rate of 5% or more and less than 20%)
- herbicidal effect on J: blackgrass (blackgrass [10]): 0 (Herbicidal rate of 5% or less (almost no effect))
- herbicidal effect on F: southern crabgrass (southern crabgrass [11]): 0 (Herbicidal rate of 5% or less (almost no effect))
- R: persian speedwell, herbicidal effect (criteria 0-5) (persian speedwell [12]): 5 (Herbicidal rate of 90% or more (almost completely withered))
- herbicidal effect on K: Italian ryegrass (Italian ryegrass [13]): 0 (Herbicidal rate of 5% or less (almost no effect))
- I: wild oat, herbicidal effect (criteria 0-5) (wild oat [14]): 1 (Herbicidal rate of 5% or more and less than 20%)
- herbicidal effect on D: Chinese sprangletop (Chinese sprangletop): 3 (Herbicidal rate of 40% or more and less than 70%)
- herbicidal effect on G: green foxtail (green foxtail [15]): 0 (Herbicidal rate of 5% or less (almost no effect))
- K: Italian ryegrass, herbicidal effect (criteria 0-5) (Italian ryegrass [16]): 4 (Herbicidal rate of 70% or more and less than 90%)
- H: barnyard grass, herbicidal effect (criteria 0-5) (barnyard grass [17]): 5 (Herbicidal rate of 90% or more (almost completely withered))
- herbicidal effect on L: windgrass (windgrass [18]): 0 (Herbicidal rate of 5% or less (almost no effect))
- Q: false cleavers, herbicidal effect (criteria 0-5) (false cleavers): 4 (Herbicidal rate of 70% or more and less than 90%)
- herbicidal effect on P: chickweed (chickweed [19]): 3 (Herbicidal rate of 40% or more and less than 70%)
- herbicidal effect on E: rice flat sedge (rice flat sedge): 5 (Herbicidal rate of 90% or more (almost completely withered))
- F: southern crabgrass, herbicidal effect (criteria 0-5) (southern crabgrass [20]): 0 (Herbicidal rate of 5% or less (almost no effect))
- herbicidal effect on H: barnyard grass (barnyard grass [21]): 0 (Herbicidal rate of 5% or less (almost no effect))
- herbicidal effect on M: velvetleaf (velvetleaf [22]): 1 (Herbicidal rate of 5% or more and less than 20%)
- J: blackgrass, herbicidal effect (criteria 0-5) (blackgrass [23]): 3 (Herbicidal rate of 40% or more and less than 70%)
- O: lambsquarters, herbicidal effect (criteria 0-5) (lambsquarters [24]): 5 (Herbicidal rate of 90% or more (almost completely withered))
- G: green foxtail, herbicidal effect (criteria 0-5) (green foxtail [25]): 5 (Herbicidal rate of 90% or more (almost completely withered))
